# Laboratory results reported in PMC10380619, “Inhibitor Trapping in N-Myristoyltransferases as a Mechanism for Drug Potency” (International Journal of Molecular Sciences, 2023).
# pIC50: −log10 of the molar value.
# Assays:
# [1] = tested on: NMT; conditions: cited from earlier work; for pIC50: fragments as single agents
# [2] = target: T1, full-length recombinant HsNMT1 enzyme (Homo sapiens, UniProt P30419); assay: fluorogenic NMT inhibition assay; format: biochemical
# T1 construct: 18.9 nM full-length recombinant HsNMT1 enzyme was incubated; purchased Fitzgerald Industries International 80R-4067
# T1 sequence (P30419 1-496): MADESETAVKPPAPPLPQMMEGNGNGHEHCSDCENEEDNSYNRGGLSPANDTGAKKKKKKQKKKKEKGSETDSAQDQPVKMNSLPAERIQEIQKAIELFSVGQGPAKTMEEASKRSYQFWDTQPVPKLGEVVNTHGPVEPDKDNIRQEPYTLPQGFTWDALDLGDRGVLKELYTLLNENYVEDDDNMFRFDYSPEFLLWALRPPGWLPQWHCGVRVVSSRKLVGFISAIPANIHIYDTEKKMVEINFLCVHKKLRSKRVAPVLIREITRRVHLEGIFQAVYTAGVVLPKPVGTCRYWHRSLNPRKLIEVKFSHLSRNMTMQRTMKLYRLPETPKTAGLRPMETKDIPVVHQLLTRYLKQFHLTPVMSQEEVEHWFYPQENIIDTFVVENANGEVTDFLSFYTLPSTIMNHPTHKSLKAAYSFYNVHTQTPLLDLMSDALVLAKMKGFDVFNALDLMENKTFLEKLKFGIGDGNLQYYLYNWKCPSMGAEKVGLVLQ
# Method: Materials and reagents. […] The ZINC IDs and the structures of the compounds are included in Table S1. […] CPM (7-Diethylamino-3- (4-maleimidophenyl)-4-methylcoumarin) and Myristoyl-CoA were purchased from Cayman Chemicals, and the buffer components from Merck (Kenilworth, NJ, USA).
# NMT inhibition assay. IC50 values were determined using a fluorogenic NMT assay, as previously described. The assay detects Coenzyme A (CoA), which is released as a byproduct of the enzymatic reaction. […] The reactions were performed in reaction buffer (20 mM potassium phosphate, pH 8.0, 0.5 mM EDTA, 0.1% (v/v) Triton® X-100) in 44 µL volume in a 96-well black plate. To eliminate the background fluorescence, reactions were also performed in the absence of the NMT1 enzyme for each concentration of the ligands. […] Fluorescence was measured at an excitation wavelength of 380 nm and an emission wavelength of 470 nm with a CLARIOstar fluorescent reader (BMG LABTECH GmbH, Ortenberg, Germany). The fluorescent values of samples obtained in the absence of NMT1 were subtracted from the fluorescent signal of samples performed in the presence of NMT1 to eliminate the background signal. The subtracted values were plotted in GraphPad Prism using a log (inhibitor concentration) vs. normalized response nonlinear fit to generate inhibitory curves and determine IC50 values.
Compound,pIC50 [1],fold reduction of IC50 of IMP-72 by IMP-358 ([1]; in the presence of 100 µM IMP-358) [fold],"pIC50 ([2]; 18.9 nM HsNMT1, 4 µM Myristoyl-CoA, 4 µM substrate peptide, highest concentration 100 µM)",% Inhibition ([2]; at concentration of the compounds 100 µM) [%],Fold Potency ([2]; ratio of IC50 of each compound to IC50 of IMP-1088)
Cc1cc(F)ccc1-c1ccc2[nH]nc(CN(C)C)c2c1 [IMP-72],4.70,308,–,–,–
CCOC(=O)c1c(C)nc2ccccc2c1C [IMP-358],< 4.00,–,–,–,–
Cc1nc(Nc2cnn(C3CCNCC3)c2)nc2c1N(C)C(=O)c1cc3ccccc3cc1N2C [compound 11],–,–,< 4.00,0,">13,158"
